Consider 26 compounds from paper PMC5431086, “The Rational Design of Therapeutic Peptides for Aminopeptidase N using a Substrate-Based Approach” (Scientific Reports, 2017).

Broadly, the IC50 is the concentration that inhibits the measured activity by half. High values mean lower potency, low ones higher potency. By Ki is commonly meant a measure of affinity in units of concentration, obtained from inhibition or displacement. A higher Ki goes with a looser hold on the target.

Several values for one entry are separate records, joined by “and”; a condition that tells them apart may be missing. Equal values may be shown once. Starred links: 1 amine or outer side, 2 acyl side, 3 side chain; linkers in the order of their positions; H or OH if unused. Positions of bridges follow the written chain, without caps; N, C: chain ends. Non-standard residues stand in square brackets, D forms with d. Residues, ends and D or L forms follow the SMILES beside them. No end group written: not given here. *: point of attachment. Suc = O=C(CCC(=O)[*:2])[*:1]; Nle = CCCC[C@H](N)C(=O)O; Cbz = O=C(OCc1ccccc1)*

T1 sequence (P15144 66-967): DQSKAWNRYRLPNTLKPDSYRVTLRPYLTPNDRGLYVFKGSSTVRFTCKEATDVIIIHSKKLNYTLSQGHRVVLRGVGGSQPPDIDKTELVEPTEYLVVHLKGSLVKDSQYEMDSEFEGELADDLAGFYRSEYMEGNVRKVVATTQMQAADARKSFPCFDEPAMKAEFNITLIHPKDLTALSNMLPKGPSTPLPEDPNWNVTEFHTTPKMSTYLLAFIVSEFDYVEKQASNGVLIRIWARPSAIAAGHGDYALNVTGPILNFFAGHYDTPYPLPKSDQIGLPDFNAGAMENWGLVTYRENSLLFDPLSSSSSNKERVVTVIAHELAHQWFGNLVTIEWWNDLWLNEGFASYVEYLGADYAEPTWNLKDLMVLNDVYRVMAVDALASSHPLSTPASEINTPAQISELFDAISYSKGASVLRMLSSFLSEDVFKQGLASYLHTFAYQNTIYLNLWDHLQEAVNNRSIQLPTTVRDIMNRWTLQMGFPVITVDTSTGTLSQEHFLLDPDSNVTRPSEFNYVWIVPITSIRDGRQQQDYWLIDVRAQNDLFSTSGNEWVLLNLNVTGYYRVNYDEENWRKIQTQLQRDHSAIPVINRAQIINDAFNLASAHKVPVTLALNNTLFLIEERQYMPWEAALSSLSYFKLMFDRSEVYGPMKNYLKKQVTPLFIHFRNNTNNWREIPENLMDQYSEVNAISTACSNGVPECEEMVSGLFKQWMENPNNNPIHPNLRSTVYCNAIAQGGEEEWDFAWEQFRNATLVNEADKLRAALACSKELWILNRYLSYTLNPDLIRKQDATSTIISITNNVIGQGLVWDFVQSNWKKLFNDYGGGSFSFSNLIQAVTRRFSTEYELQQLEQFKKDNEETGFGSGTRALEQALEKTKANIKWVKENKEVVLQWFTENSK

One experiment addresses T1, hAPN (aminopeptidase N) (Homo sapiens, UniProt P15144).
T1 construct: human APN ecdomain (residues 66–967) were expressed and purified as previously described; honeybee-melittin signal peptide (N); His6 (C); made in house; host or cells: insect cells
The experiment is described as follows: Inhibition of cleavage of fluorogenic alanine substrate (H-Ala-AMC) by APN. The class given is biochemical. The conditions noted are these: 0.1 μM APN, 100 μM H-Ala-AMC, pH 7.2, 37 °C, triplicate. On the procedure:
Five-residue long peptides containing P1–P4′ residues from primary cleavages in the library were synthesized and tested for their ability to prevent the cleavage of a fluorogenic alanine substrate by hAPN.
The peptides used in this study were custom synthesized by AAPPTEC of Louisville, KY using traditional Fmoc solid-phase peptide synthesis. All of the peptides were purified and characterized by AAPPTEC. […] Inhibition assays were performed in triplicate in a 100 mM Tris pH 7.2, Brij 35 0.0002% w/v assay buffer at 37 °C with 0.1 μM APN and 100 μM H-Ala-AMC (fluorophore). Values were recorded by Infinite pro plate reader every 2 minutes for 30 minutes with laser parameters set for excitation at 355 nm and emission at 460 nm.
Take EPKVA [EPKVA]: the IC50 was > 500 µM. Still for that read-out and setting: under `C[C@@H](O)[C@H](NC(=O)[C@H](CO)NC(=O)[C@@H](N)CC(=O)O)C(=O)N[C@@H](Cc1ccccc1)C(=O)O` [DSTF] (H-DSTF-OH) stands > 500 µM; under ADARK [ADARK], > 500 µM; under `CCCC[C@H](N)C(=O)N[C@@H](CC(=O)O)C(=O)N[C@@H](CCC(N)=O)C(=O)N[C@H](C(=O)N[C@@H](Cc1ccc(O)cc1)C(=O)O)[C@@H](C)CC` [nDQIY] (H-[Nle]DQIY-OH), > 500 µM.

With AHSTF [AHSTF], the IC50 was > 500 µM.

Compound PHSPW [PHSPW] came in with an IC50 of 82.5 ± 9.3 µM. `C[C@H](NC(=O)[C@@H](N)CC(=O)O)C(=O)N[C@@H](CCCNC(=N)N)C(=O)N[C@@H](CCCCN)C(=O)O` [DARK] (H-DARK-OH): the IC50 was > 500 µM. For the compound INDFL [INDFL], the IC50 was > 500 µM. The same measure, in the same setting: in the case of AHLFN [AHLFN] it was > 500 µM; in that of FSLSK [FSLSK], > 500 µM. Same read-out and setting: in the case of FYLRE [FYLRE] it was > 500 µM; in that of `CCCC[C@H](N)C(=O)N[C@@H](Cc1c[nH]cn1)C(=O)N[C@@H](CO)C(=O)N1CCC[C@H]1C(=O)N[C@@H](Cc1c[nH]c2ccccc12)C(=O)O` [nHSPW] (H-[Nle]HSPW-OH), 6.5 ± 0.5 µM. Turning to LDSTF [LDSTF], the IC50 was > 500 µM.

The compound AHSPW [AHSPW] registered a half-inhibitory concentration (IC50) of 9.4 ± 1.1 µM. For LHSPW [LHSPW], the IC50 was determined as 10.6 ± 1.2 µM. Still for that read-out and setting: in the case of `N[C@@H](Cc1c[nH]cn1)C(=O)N[C@@H](CO)C(=O)N1CCC[C@H]1C(=O)N[C@@H](Cc1c[nH]c2ccccc12)C(=O)O` [HSPW] (H-HSPW-OH; N-terminus and C-terminus assumed) it was 43 µM and 43.3 µM. Still for that read-out and setting: under SKSGQ [SKSGQ] stands > 500 µM.

Still in this experiment, the particulars now being: APN; Ki from IC50 by Cheng-Prusoff equation; 0.1 μM APN, 100 μM H-Ala-AMC.
Regarding `C[C@@H]1NC(=O)[C@H](CC(=O)O)NC(=O)[C@H](C)NC(=O)[C@@H](N)CSSC[C@@H](C(=O)O)NC(=O)[C@H](CCCCN)NC(=O)[C@H](CCCNC(=N)N)NC1=O` [cyc-ADARK] (H-CADARKC-OH; disulfide 1-7), the Ki was > 500 µM. Turning to `O=C(N[C@@H](Cc1c[nH]cn1)C(=O)N[C@@H](CO)C(=O)N1CCC[C@H]1C(=O)N[C@@H](Cc1c[nH]c2ccccc12)C(=O)O)OCc1ccccc1` [Cbz-HSPW] (Cbz-HSPW-OH; C-terminus assumed), the Ki was > 500 µM. `CC(C)C[C@H](NC(=O)CCC(=O)O)C(=O)N[C@@H](Cc1c[nH]cn1)C(=O)N[C@@H](CO)C(=O)N1CCC[C@H]1C(=O)N[C@@H](Cc1c[nH]c2ccccc12)C(=O)O` [Suc-LHSPW] (Suc-LHSPW-OH): the Ki was > 500 µM. The same measure, in the same setting: in the case of `O=C(O)CCC(=O)N[C@@H](Cc1c[nH]cn1)C(=O)N[C@@H](CO)C(=O)N1CCC[C@H]1C(=O)N[C@@H](Cc1c[nH]c2ccccc12)C(=O)O` [Suc-HSPW] (Suc-HSPW-OH; C-terminus assumed) it was > 500 µM; in that of `CC(=O)N[C@@H](Cc1c[nH]cn1)C(=O)N[C@@H](CO)C(=O)N1CCC[C@H]1C(=O)N[C@@H](Cc1c[nH]c2ccccc12)C(=O)O` [Ac-HSPW] (Ac-HSPW-OH; C-terminus assumed), > 500 µM; in that of Ac-LHSPW [Ac-LHSPW], > 500 µM. The same measure, in the same setting: under `CC(C)C[C@@H]1NC(=O)[C@@H](N)CSSC[C@@H](C(=O)O)NC(=O)[C@H](Cc2ccccc2)NC(=O)[C@H]([C@@H](C)O)NC(=O)[C@H](CO)NC(=O)[C@H](CC(=O)O)NC1=O` [cyc-LDSTF] (H-CLDSTFC-OH; disulfide 1-7) stands > 500 µM. The same measure, in the same setting: in the case of `CC(C)C[C@@H]1NC(=O)[C@@H](N)CSSC[C@@H](C(=O)O)NC(=O)[C@H](CO)NC(=O)[C@H](Cc2c[nH]cn2)NC1=O` [cyc-LHS] (H-CLHSC-OH; disulfide 1-5) it was > 500 µM; in that of `N[C@H]1CSSC[C@@H](C(=O)O)NC(=O)[C@H](Cc2c[nH]c3ccccc23)NC(=O)[C@@H]2CCCN2C(=O)[C@H](CO)NC(=O)[C@H](Cc2c[nH]cn2)NC(=O)[C@@H]2CCCN2C1=O` [cyc-PHSPW, Cys-PHSPW-Cys] (H-CPHSPWC-OH; disulfide 1-7), > 500 µM.
